Reference: patent US20060263802A1 (priority 2003, published 2006)

Legend:
Type in all cases: binding
[1] = tested on: human monoclonal antibody CR57
[2] = tested on: human monoclonal antibody CR57; remark: listed apart in the source
[3] = tested on: human monoclonal antibody CRJB
[4] = tested on: human monoclonal antibody CRJA
[5] = tested on: human monoclonal antibody CRJA; remark: listed apart in the source
[6] = tested on: human monoclonal antibody CRJB; remark: listed apart in the source

Row | Sequence | Binding of CR57 to linear peptide (PEPSCAN-ELISA signal) [1] | Binding of CR57 (10 μg/ml) to looped/cyclic peptide (PEPSCAN-ELISA) [2] | Binding of CRJB to linear peptide (PEPSCAN-ELISA signal) [3] | Binding of CRJA to linear peptide (PEPSCAN-ELISA signal) [4] | Binding of CRJA (10 μg/ml) to looped/cyclic peptide (PEPSCAN-ELISA) [5] | Binding of CRJB (10 μg/ml) to looped/cyclic peptide (PEPSCAN-ELISA) [6] | Binding of CR57 (10 μg/ml) to looped/cyclic peptide (PEPSCAN-ELISA signal) [2] | Binding of CRJA (10 μg/ml) to looped/cyclic peptide (PEPSCAN-ELISA signal) [5] | Binding of CRJB (10 μg/ml) to looped/cyclic peptide (PEPSCAN-ELISA signal) [6] | binding of antibody CR57 to looped/cyclic peptide (PEPSCAN OD) [2] | Binding of human monoclonal antibody CR57 to linear peptide (PEPSCAN-ELISA signal) [1] | Binding of CR57 to looped/cyclic peptide (PEPSCAN-ELISA signal) [2] | Binding of human monoclonal antibody CRJB to linear peptide (PEPSCAN-ELISA signal) [3] | Binding of human monoclonal antibody CRJA to linear peptide (PEPSCAN-ELISA signal) [4] | Binding of CRJA to looped/cyclic peptide (PEPSCAN-ELISA signal) [5] | Binding of CRJB to looped/cyclic peptide (PEPSCAN-ELISA signal) [6]
1 | GKAYTIFNKTLMEAD | 76 | 114 | 127 | 100 | 107 | 100 | – | – | – | – | – | – | – | – | – | –
2 | GKCSGVAVSSTYCST | 92 | – | 143 | 103 | – | – | 79 | 97 | 74 | – | – | – | – | – | – | –
3 | GKRASKGSETCGFVD | 92 | 82 | 124 | 97 | 93 | 71 | – | – | – | – | – | – | – | – | – | –
4 | GLRLMDGTWVAMQTS | 104 | 120 | 138 | 108 | 100 | 99 | – | – | – | – | – | – | – | – | – | –
5 | GLYKSLKGACKLKLC | 94 | 86 | 129 | 91 | 100 | 97 | – | – | – | – | – | – | – | – | – | –
6 | GMSCDIFTNSRGKRA | 54 | – | 120 | 71 | – | – | 79 | 51 | 78 | – | – | – | – | – | – | –
7 | GNVLIPEMQSSLLQQ | 96 | 99 | 120 | 85 | 78 | 103 | – | – | – | – | – | – | – | – | – | –
8 | GPDGNVLIPEMQSSL | 86 | 141 | 154 | 91 | 112 | 100 | – | – | – | – | – | – | – | – | – | –
9 | GPWSPIDIHHLSCPN | 68 | – | 114 | 72 | – | – | 78 | 97 | 78 | – | – | – | – | – | – | –
10 | GRCHPHVNGVFFNGI | 117 | 110 | 113 | 100 | 104 | 102 | – | – | – | – | – | – | – | – | – | –
11 | GSETCGFVDERGLYK | 57 | 64 | 115 | 56 | 64 | 71 | – | – | – | – | – | – | – | – | – | –
12 | GTWVAMQTSNETKWC | 58 | 71 | 113 | 61 | 62 | 85 | – | – | – | – | – | – | – | – | – | –
13 | GVAVSSTYCSTNHDY | 79 | – | 114 | 83 | – | – | 111 | 96 | 80 | – | – | – | – | – | – | –
14 | GVFFNGIILGPDGNV | 58 | 57 | 116 | 84 | 68 | 85 | – | – | – | – | – | – | – | – | – | –
15 | GVLGLRLMDGTWVAM | 89 | 118 | 148 | 107 | 104 | 83 | – | – | – | – | – | – | – | – | – | –
16 | GVVTEAENYTNFVGY | 86 | – | 111 | 76 | – | – | 83 | 90 | 71 | – | – | – | – | – | – | –
17 | GYILAIKMNGFTCTG | 75 | – | 90 | 73 | – | – | 87 | 72 | 61 | – | – | – | – | – | – | –
18 | GYVTTTFKRKHFRPT | 70 | – | 123 | 87 | – | – | 200 | 101 | 138 | clearly bound | – | – | – | – | – | –
19 | HDFRSDEIEHLVVEE | 69 | 24 | 107 | 78 | 111 | 79 | – | – | – | – | – | – | – | – | – | –
20 | HDYTIWMPENPRLGM | 82 | – | 125 | 110 | – | – | 88 | 97 | 96 | – | – | – | – | – | – | –
21 | HFRPTPDACRAAYNW | 46 | – | 113 | 93 | – | – | 65 | 62 | 71 | – | – | – | – | – | – | –
22 | HHLSCPNNLVVEDEG | 56 | – | 76 | 72 | – | – | 66 | 96 | 58 | – | – | – | – | – | – | –
23 | HLPDVHNQVSGVDLG | – | – | – | – | – | – | – | – | – | – | 104 | 119 | 150 | 96 | 87 | 93
24 | HLRKLVPGFGKAYTI | 99 | 118 | 111 | 116 | 120 | 93 | – | – | – | – | – | – | – | – | – | –
25 | HLSCPNNLVVEDEGC | 65 | – | 119 | 76 | – | – | 76 | 92 | 64 | – | – | – | – | – | – | –
26 | HLVVEELVRKREECL | 82 | 110 | 123 | 111 | 110 | 105 | – | – | – | – | – | – | – | – | – | –
27 | HMELLESSVIPLVHP | 110 | 118 | 129 | 114 | 106 | 104 | – | – | – | – | – | – | – | – | – | –
28 | HNPYPDYRWLRTVKT | 86 | – | 108 | 98 | – | – | 85 | 65 | 69 | – | – | – | – | – | – | –
29 | HNQVSGVDLGLPNWG | – | – | – | – | – | – | – | – | – | – | 76 | 78 | 106 | 66 | 55 | 100
30 | HPHVNGVFFNGIILG | 104 | 104 | 138 | 89 | 91 | 99 | – | – | – | – | – | – | – | – | – | –
